Test results: ChEMBL document CHEMBL6083257, “Discovery of small molecules for autophagy-lysosome degradation of immune checkpoint proteins” (Eur J Med Chem, 2024)
Active and inactive are the calls of the source. The calls are words filed in the database; no cut-off is given here.

Columns and labels:
HepG2 [1] = test: Induction of VISTA degradation in human HepG2 cells assessed as decrease in VISTA protein level at 5 uM using ECL as substrate incubated for 1 hrs by immunoblot analysis; assay type: cell-based
HepG2 [2] = test: Induction of VISTA degradation in human HepG2 cells assessed as decrease in VISTA protein level at 5 uM using ECL as substrate incubated for 1 hrs by immunoblot analysis relative to control; assay type: cell-based; set-up: scale not given: the % may be the effect or the level left
RKO [3] = test: AUTAC (autophagy-targeting chimera ) activity in autophagy-lysosome mediated PD-L1 degradation in human RKO cells assessed as PD-L1 degradation at 0.5 uM using ECL as substrate incubated for 24 hrs in presence of 3-methyladenine by immunoblot analysis; assay type: cell-based
RKO [4] = test: Induction of autophagy in human RKO cells assessed as increase LC3II expression at 1 uM incubated for 24 hrs in presence of 3-methyladenine by immunoblot analysis; assay type: functional, cell-based
RKO [5] = test: AUTAC (autophagy-targeting chimera) activity at PD-L1 in human RKO cells assessed as autophagy-lysosome mediated protein degradation by measuring reduced PD-L1 level at 1 uM incubated for 24 hrs by ECL substrate based Western blotting analysis relative to control; assay type: cell-based; set-up: scale not given: the % may be the effect or the level left
[6] = Toxicity in male BALB/c mouse model mouse implanted in CT26 cells assessed as body weight loss at 120 mg/kg, po; assay type: organism-based; details: in vivo
CT26 [7] = test: Antitumor immunity against mouse CT26 cells implanted in male BALB/c mouse model assessed as increase infiltration of CD8+ cells at 30 to 120 mg/kg, po; assay type: functional, organism-based; details: dose 30-120 mg/kg
[8] = Toxicity in male BALB/c mouse model mouse implanted in CT26 cells assessed as mortality at 120 mg/kg, po; assay type: organism-based; details: in vivo
RKO [9] = test: AUTAC (autophagy-targeting chimera ) activity in autophagy-lysosome mediated PD-L1 degradation in human RKO cells assessed as PD-L1 degradation at 50 uM using ECL as substrate incubated for 24 hrs in presence of chloroquine by immunoblot analysis; assay type: cell-based
[10] = target: Programmed cell death protein 1/Programmed cell death 1 ligand 1 (Homo sapiens, UniProt Q15116+Q9NZQ7); test: Inhibition of PD-1/PD-L1 interaction (unknown origin) incubated for 90 min by TR-FRET assay; assay type: protein-complex assay
RKO [11] = test: AUTAC (autophagy-targeting chimera ) activity in autophagy-lysosome mediated PD-L1 degradation in human RKO cells assessed as PD-L1 degradation at 10 uM using ECL as substrate incubated for 24 hrs in presence of pepstainA by immunoblot analysis; assay type: cell-based
CT26 [12] = test: In vivo antitumor activity against mouse CT26 cells implanted in male BALB/c mouse model assessed as decrease PD-L1 in tumor tissue at 120 mg/kg, po incubated for overnight by immunohistochemistry; assay type: functional, organism-based
RKO [13] = test: AUTAC (autophagy-targeting chimera) activity at PD-L1 in human RKO cells assessed as autophagy-lysosome mediated protein degradation measured after 24 hrs by ECL substrate based Western blotting analysis; assay type: cell-based; details: dose 0.5-2 µM
RKO [14] = test: Induction of autophagosome lysosome fusion in human RKO cells transfected with Ad-mCherry-GFP-LC3B incubated for 24 hrs by inverted fluorescence microscope analysis; assay type: functional, cell-based
RKO [15] = test: AUTAC (autophagy-targeting chimera ) activity in autophagy-lysosome mediated PD-L1 degradation in human RKO cells assessed as PD-L1 degradation at 0.5 uM using ECL as substrate incubated for 24 hrs in presence of Cycloheximide by immunoblot analysis; assay type: cell-based
CT26 [16] = test: In vivo antitumor activity against mouse CT26 cells implanted in male BALB/c mouse model assessed reduced tumor growth oral administration once daily; assay type: functional, organism-based; details: dose 30-120 mg/kg
CT26 [17] = test: In vivo antitumor activity against mouse CT26 cells implanted in male BALB/c mouse model assessed reduced tumor growth at 60 mg/kg oral administration once daily; assay type: functional, organism-based
RKO [18] = test: AUTAC (autophagy-targeting chimera) activity at PD-L1 in human RKO cells assessed as autophagy-lysosome mediated protein degradation by measuring reduced PD-L1 level at 0.5 uM incubated for 24 hrs by ECL substrate based Western blotting analysis relative to control; assay type: cell-based; set-up: scale not given: the % may be the effect or the level left
RKO [19] = test: Upregulation of autophagy lysosome related Atg9b gene expression in human RKO cells at 5 uM incubated for 24 hrs by qRT-PCR analysis; assay type: functional, cell-based
RKO [20] = test: Upregulation of autophagy lysosome related Mitf gene expression in human RKO cells at 5 uM incubated for 24 hrs by qRT-PCR analysis; assay type: functional, cell-based
RKO [21] = test: Upregulation of autophagy lysosome related Lamp1 gene expression in human RKO cells at 5 uM incubated for 24 hrs by qRT-PCR analysis; assay type: functional, cell-based
RKO [22] = test: AUTAC (autophagy-targeting chimera) activity at PD-L1 in human RKO cells assessed as autophagy-lysosome mediated protein degradation at 2 uM measured after 24 hrs by ECL substrate based Western blotting analysis; assay type: cell-based
RKO [23] = test: AUTAC (autophagy-targeting chimera) activity at PD-L1 in human RKO cells assessed as autophagy-lysosome mediated protein degradation by measuring protein level at 4 uM measured after 24 hrs by ECL substrate based Western blotting analysis relative to control; assay type: cell-based
RKO [24] = test: AUTAC (autophagy-targeting chimera) activity at PD-L1 in human RKO cells assessed as autophagy-lysosome mediated protein degradation at 1 uM measured after 24 hrs by ECL substrate based Western blotting analysis; assay type: cell-based
RKO [25] = test: AUTAC (autophagy-targeting chimera) activity at PD-L1 in human RKO cells assessed as autophagy-lysosome mediated protein degradation by measuring protein level at 1 uM measured after 24 hrs by ECL substrate based Western blotting analysis relative to control; assay type: cell-based
RKO [26] = test: AUTAC (autophagy-targeting chimera) activity at PD-L1 in human RKO cells assessed as autophagy-lysosome mediated protein degradation by measuring protein level at 2 uM measured after 24 hrs by ECL substrate based Western blotting analysis relative to control; assay type: cell-based
RKO [27] = test: AUTAC (autophagy-targeting chimera) activity at PD-L1 in human RKO cells assessed as autophagy-lysosome mediated protein degradation at 4 uM measured after 24 hrs by ECL substrate based Western blotting analysis; assay type: cell-based
RKO [28] = test: AUTAC (autophagy-targeting chimera) activity at PD-L1 in human RKO cells assessed as autophagy-lysosome mediated protein degradation by measuring protein level at 0.5 uM measured after 24 hrs by ECL substrate based Western blotting analysis relative to control; assay type: cell-based

Programmed cell death protein 1/Programmed cell death 1 ligand 1, sequence (Q15116 whole entry): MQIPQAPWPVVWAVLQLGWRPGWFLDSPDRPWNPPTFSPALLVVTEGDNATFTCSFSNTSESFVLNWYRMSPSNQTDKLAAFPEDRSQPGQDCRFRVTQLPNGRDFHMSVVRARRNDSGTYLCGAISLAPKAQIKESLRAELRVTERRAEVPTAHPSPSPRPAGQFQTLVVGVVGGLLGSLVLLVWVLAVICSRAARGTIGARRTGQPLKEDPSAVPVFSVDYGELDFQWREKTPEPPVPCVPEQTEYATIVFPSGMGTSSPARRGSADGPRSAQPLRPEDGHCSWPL
Programmed cell death protein 1/Programmed cell death 1 ligand 1, sequence (Q9NZQ7 whole entry): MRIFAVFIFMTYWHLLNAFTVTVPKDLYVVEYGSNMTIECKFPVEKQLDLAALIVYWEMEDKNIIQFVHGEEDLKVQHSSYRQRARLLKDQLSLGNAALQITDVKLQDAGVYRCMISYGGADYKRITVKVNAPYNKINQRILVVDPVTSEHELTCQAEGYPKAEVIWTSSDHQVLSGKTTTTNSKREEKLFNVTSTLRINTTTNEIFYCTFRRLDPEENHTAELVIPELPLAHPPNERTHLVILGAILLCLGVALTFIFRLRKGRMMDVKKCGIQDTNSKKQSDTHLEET

## Cc1c(-c2ccccc2)cccc1-c1nnc(Nc2cccc(CNCCOCCOCCOCCOCCNCc3cccc(-c4nc5ccc(-c6ccccc6)c(C)c5[nH]4)c3)c2)o1
HepG2 [1]
  Activity: Active

## Cc1c(-c2ccccc2)ccc2nc(-c3cccc(CNCCOCCOCCOCCOCCNCc4cccc(Nc5nnc(-c6ccccc6)o5)c4)c3)[nH]c12
HepG2 [1]
  Activity: Active
HepG2 [2]
  Activity: 87%

## Cc1c(-c2ccccc2)cccc1-c1nnc(Nc2cccc(CNCCOCCOCCOCCOCCNCc3cccc(Nc4nnc(-c5ccccc5)o4)c3)c2)o1
RKO [3]
  Activity: Active
RKO [4]
  Activity: Active
RKO [5]
  Activity: 90%
[6]
  Activity: Non-toxic
CT26 [7]
  Activity: Active
[8]
  Activity: Non-toxic
RKO [9]
  Activity: Active
[10]
  IC50: 22.8 nM
RKO [11]
  Activity: Active
CT26 [12]
  Activity: Active
RKO [13]
  Activity: Dose-dependent-effect
RKO [14]
  Activity: Active
RKO [15]
  Activity: Active
CT26 [16]
  Activity: Dose-dependent-effect
CT26 [17]
  Activity: Active
RKO [18]
  Activity: 70%

## CNc1cccc(CNCCO)c1
RKO [19]
  Activity: Active
RKO [20]
  Activity: Active
[10]
  IC50: > 1000 nM
RKO [21]
  Activity: Active

## Cc1c(-c2ccccc2)cccc1-c1nnc(Nc2cccc(CNCCOCCOCCNCc3cccc(Nc4nnc(-c5ccccc5)o4)c3)c2)o1
[10]
  IC50: 30.6 nM

## Cc1c(-c2ccccc2)ccc2nc(-c3cccc(CNCCOCCOCCOCCNCc4cccc(Nc5nnc(-c6ccccc6)o5)c4)c3)[nH]c12
HepG2 [1]
  Activity: Active
HepG2 [2]
  Activity: 89%

## Cc1c(-c2ccccc2)cccc1-c1nnc(Nc2cccc(CNCCOCCOCCOCCNCc3cccc(Nc4nnc(-c5cccc(-c6ccccc6)c5C)o4)c3)c2)o1
[10]
  IC50: 24.6 nM
RKO [13]
  Activity: Dose-dependent-effect
RKO [22]
  Activity: Active

## Cc1c(-c2ccccc2)cccc1-c1nnc(Nc2cccc(CNCCOCCOCCOCCNCc3cccc(-c4nc5ccc(-c6ccccc6)c(C)c5[nH]4)c3)c2)o1
HepG2 [1]
  Activity: Active

## Cc1c(-c2ccccc2)cccc1-c1nnc(Nc2cccc(CNCCOCCOCCOCCNCc3cccc(Nc4nnc(-c5ccccc5)o4)c3)c2)o1
RKO [23]
  Activity: 4%
RKO [24]
  Activity: Active
[10]
  IC50: 28.4 nM
RKO [25]
  Activity: 72%
RKO [13]
  Activity: Dose-dependent-effect
RKO [26]
  Activity: 44%
RKO [27]
  Activity: Active
RKO [28]
  Activity: 90%

## CNc1cccc(CNCCOCCOCCOCCNCc2cccc(Nc3nnc(-c4cccc(-c5ccccc5)c4C)o3)c2)c1
RKO [23]
  Activity: 28%
[10]
  IC50: 22.3 nM
RKO [13]
  Activity: Dose-dependent-effect
RKO [26]
  Activity: 33%
RKO [28]
  Activity: 93%

## Cc1c(-c2ccccc2)cccc1-c1nnc(Nc2cccc(CNCCOCCOCCNCc3cccc(Nc4nnc(-c5cccc(-c6ccccc6)c5C)o4)c3)c2)o1
[10]
  IC50: 25.7 nM

## Cc1c(-c2ccccc2)cccc1-c1nnc(Nc2cccc(CNCCOCCOCCOCCOCCOCCNCc3cccc(Nc4nnc(-c5ccccc5)o4)c3)c2)o1
[10]
  IC50: 23 nM

## Cc1c(-c2ccccc2)cccc1-c1nnc(Nc2cccc(CNCCOCCNCc3cccc(Nc4nnc(-c5cccc(-c6ccccc6)c5C)o4)c3)c2)o1
[10]
  IC50: 39.4 nM

## OCCNCc1cccc(Nc2nnc(-c3ccccc3)o2)c1
RKO [19]
  Activity: Active
RKO [20]
  Activity: Active
[10]
  IC50: > 1000 nM
RKO [21]
  Activity: Active
